# In US20240011027A1, “METHODS AND COMPOSITIONS FOR RESTORING STMN2 LEVELS” (President and Fellows of Harvard College, priority 2020, published 2024):
# Columns and labels:
# Type in all cases: cell-based, human
# [1] = tested on: STMN2; experiment: STMN2 multiplexed qPCR assay in neurons after TDP-43 reduction by ASO or siRNA; conditions: compared with SCR ASO
# Excerpt: FIGS. 17A-17C show RNA can be readily collected from CSF-derived exosomes and then converted into cDNA to assay for full and cryptic STMN2 transcripts as well as control RNAs for normalization (FIG. 17A). […] STMN2 transcripts are normalized to the house keeping ribosomal subunit RNA18S5. TDP-43 levels were reduced in cultured human neurons using either an antisense oligonucleotide (ASO) to deplete cells of TDP-43 or an siRNAs to induce TDP-43 knockdown. […] Using the validated multiplexed qPCR assay, next RNA was isolated from CSF-derived exosomes using 300 ul patient samples to determine the levels of cryptic STMN2 (n=7 healthy controls, n=2 disease mimics and n=9 ALS patients). […] Note that even in this modest set of samples that the increase in cryptic exon expression in ALS patients was highly significant (P<0.005). […] Finally, there is an interesting “texture” to the patient data with some patients showing high levels of expression and others more normal levels. It is hypothesized that patients with lower levels may either be earlier in their disease or have non-TDP-43 disease.
# [2] = tested on: hMNs; experiment: neurite outgrowth, Sholl analysis of hMNs; conditions: 10 μM; STMN2+/+ and STMN2−/− hMNs
# Method: Given the reported role of STMN2 in regulating axonal growth by promoting the dynamic instability of microtubules (77), phenotypic assays were carried out characterizing neurite outgrowth in the STMN2−/− hMNs. After 7 days in culture, sorted hMNs were fixed and stained for β-III-tubulin to label the neuronal processes (FIG. 4E).
# Individual Tuj1-positive neurons used for Sholl analyses were randomly selected and imaged using a Nikon Eclipse TE300 with a 40× objective. The neurites were traced using the ImageJ (NIH) plugin NeuronJ (78), and Sholl analysis was performed using the Sholl tool of Fiji (96), quantifying the number of intersections at intervals from the cell body. Statistical analysis was performed by comparing the number of intersections of KO clones with the parental WT line for each 10 μm interval using Prism 6 (Graph Pad, La Jolla, CA, USA). Significance was assessed by a standard Student's t-test, with a p value of p<0.05 considered as significant.
# [3] = tested on: STMN2 RNA; experiment: qRT-PCR of full-length STMN2 after proteasome inhibition with MG-132 in patient's motor neurons; conditions: patient's motor neurons; MG-132 (1 uM)
# Excerpt: It was established that ASO (SJ+94) and ASO (SJ-1) suppressed cryptic splicing of STMN2 and restored full length STMN2 RNA in the patient's motor neurons when there is a reduction in nuclear TDP-43. […] Post-mortem tissue studies have shown that TDP-43 mis-localization and its aggregation in cytoplasm is a hallmark of sporadic ALS. Several groups have reported cytoplasmic aggregation of TDP-43 akin to that observed in post-mortem tissue of sporadic ALS patients occurs in response to pharmacological inhibition of the proteasome (1, 4).
# [4] = tested on: STMN2 transcript; experiment: qRT-PCR of truncated (cryptic) and full-length STMN2 RNA in patient's motor neurons treated with siTARDBP and ASOs; conditions: for STMN2 in TDP-43 depleted neurons: FIG. 93; for cry STMN2 in TDP-43 depleted neurons: FIG. 94; for cryptic STMN2 RNA levels (cryptic splicing) / full-length STMN2 RNA levels: patient's motor neurons treated with siTARDBP, ASO 30 nM to 0.03 nM, qRT-PCR normalized using RNA18S5, relative to NTC
# Method: In total, 51 ASOs were screened in the patient's motor neurons for their ability to (1) suppress the generation of truncated STMN2 transcript as well as (2) restore the full-length STMN2 transcript.
# In the first experiment the patient's motor neurons were treated with siTARDBP, the patient's motor neurons were then cultured with the various ASOs over a range of concentrations (ranging from 30 nM to 0.03 nM) before extracting total RNA. Extracted RNA was used to synthesize cDNA by reverse transcription. qRT-PCR was used to assess levels for both truncated and full-length STMN2 RNAs normalized using RNA18S5 expression.
# [5] = tested on: STMN2 protein; experiment: immunoblot of STMN2 protein levels in patient's motor neurons following reduction of TDP-43 by siRNA; conditions: patient's motor neurons after TDP-43 reduction by siRNA; compared to NTC / siRNA controls
# Method: For analysis of TDP-43 and STMN2 protein expression levels, d10 MNs were lysed in RIPA buffer (150 mM Sodium Chloride; 1% Triton X-100; 0.5% sodium deoxycholate; 0.1% SDS; 50 mM Tris pH 8.0) containing protease and phosphatase inhibitors (Roche) for 20 min on ice, and centrifuged at high speed. 200 μL of RIPA buffer per well of 24-well culture were routinely used, which yielded ˜20 μg of total protein as determined by BCA (Thermo Scientific). After two washes with RIPA buffer, insoluble pellets were resuspended in 200 μl of UREA buffer (Bio-Rad). For immunoblot assays 2-3 μg of total protein were separated by SDS-PAGE (BioRad), transferred to PDVF membranes (BioRad) and probed with antibodies against TDP-43 (1:1000, ProteinTech Group), GAPDH (1:1000, Millipore) and STMN2 (1:3000, Novus). Insoluble pellets were loaded based on protein concentration of correspondent RIPA-soluble counterparts. The same PDVF membrane was immunoassayed 2-3 times using Restore™ PLUS Western Blot Stripping Buffer (Thermo Scientific). GAPDH levels were used to normalized each sample, and LiCor software was used to quantitate protein band signal.
# After establishing and validating that the STMN2 ASOs could affect transcript levels, it was sought to determine if they could also rescue diminished protein levels observed after TDP-43 reduction. The patient's motor neurons were treated with siRNAs and either a nontargeting ASO (NTC) or one of the lead compounds from the screen (FIG. 90, FIG. 97). […] Unlike the cells treated with the non-targeting control ASO (NTC), restoration of STMN2 to the levels of the siRNA controls for the lead candidates was observed.
# [6] = tested on: patient's motor neurons; experiment: axonal regrowth after axotomy in microfluidic devices, TDP-43 depleted patient's motor neurons; conditions: for neurite outgrowth deficits following TDP-43 depletion: FIG. 92; for axonal regrowth after injury relative to the non-targeting control ASO / axon extension from the microchannel (regrowth after injury), mean values: patient's motor neurons treated with siTARDBP, 18 hours after axotomy
# Method: Sorted motor neurons were cultured in standard neuron microfluidic devices (SND150, XONA Microfluidics) mounted on glass coverslips coated with 0.1 mg/ml poly-D-lysine (Sigma-Aldrich) and 5 μg/ml laminin (Invitrogen) at a concentration of around 250,000 neurons/device. Axotomy was performed at day 7 of culture by repeated vacuum aspiration and reperfusion of the axon chamber until axons were cut effectively without disturbing cell bodies in the soma compartment.
# To test if ASO SJ+94 could rescue axonal regrowth after TDP-43 depletion and injury, the patient's motor neurons were cultured in microfluidic devices that permitted axon growth into a chamber distinct from the neuronal cell bodies (FIG. 91A). Neurons cultured for 7 days in the soma compartment of the device extended axons through the microchannels into the axon chamber. Neurons were treated with siTARDBP and ASO SJ+94 before severing axons without disturbing cell bodies in the soma compartment. The axon extension was then measured from the microchannel to assess regrowth after injury (FIG. 91B, FIG. 91D).
# [7] = tested on: STMN2 cryptic exon; experiment: RT-PCR detection of transcripts containing the STMN2 cryptic exon in hMNs treated with proteasome inhibitors
# Method: It was then asked if cryptic exon inclusion could be contributing to decreased STMN2 levels in hMNs after proteasome inhibition. To accomplish this goal, an RT-PCR assay was developed to detect transcripts containing the cryptic exon (FIG. 5F). […] Total RNA was isolated from neurons using RNeasy Mini Kit (Qiagen) according to manufacturer's instructions. A total of 300-1000 ng of total RNA was used to synthesize cDNA by reverse transcription according to the iSCRIPT kit (Bio-rad). RT-PCR was then performed using one cryptic exon-specific primer and then analyzed using the Agilent 2200 Tapestation.
compound,measurement,setting,value
"TDP-43 ASO: antisense oligonucleotide to deplete cells of TDP-43, AAGGCTTCATATTGTACTTT (chemistry not given here)",relative expression of STMN2 (Exons 3-4),[1],STMN2 reduction
same,relative expression of cryptic STMN2,[1],cryptic exon induction
C[C@@H](N)[C@H]1CC[C@H](C(=O)Nc2ccncc2)CC1 [Y-27632],neurite outgrowth (Sholl analysis),[2],enhancing the outgrowth of the STMN^+/+ line but not the STMN^−/− line
"SJ+94: antisense oligonucleotide CATTTCTTCTTAGGCAGGCT, fully modified with MOE sugars and phosphorothioate linkages (all 2'-MOE, all phosphorothioate, methylation of C not given here)",full length STMN2 RNA levels compared to non-targeting control ASO (NTC),[3],significantly higher levels of full length STMN2 RNA
same,STMN2 in TDP-43 depleted neurons,[4],restored
same,cry STMN2 in TDP-43 depleted neurons,[4],reduced
same,cryptic STMN2 RNA levels (cryptic splicing),[4],suppress cryptic splicing
same,full-length STMN2 RNA levels,[4],restore full length STMN2 RNA
same,STMN2 protein levels,[5],increase is significant
same,neurite outgrowth deficits following TDP-43 depletion,[6],rescued
same,axonal regrowth after injury relative to the non-targeting control ASO,[6],significantly increased regrowth
"SJ+101: antisense oligonucleotide TTCACATTCATTTCTTCTTAG, fully modified with MOE sugars and phosphorothioate linkages (all 2'-MOE, all phosphorothioate, methylation of C not given here)",STMN2 in TDP-43 depleted neurons,[4],restored
same,cry STMN2 in TDP-43 depleted neurons,[4],reduced
same,STMN2 protein levels,[5],increase is significant
same,neurite outgrowth deficits following TDP-43 depletion,[6],rescued
"SJ-1: antisense oligonucleotide AGGTCTTCTGCCGAGTC C, fully modified with MOE sugars and phosphorothioate linkages (antisense AGGTCTTCTGCCGAGTCC; all 2'-MOE, all phosphorothioate, methylation of C not given here)","full-length STMN2 RNA levels, higher than non-targeting control ASO (NTC)",[3],30%
same,STMN2 in TDP-43 depleted neurons,[4],restored
same,cry STMN2 in TDP-43 depleted neurons,[4],reduced
same,cryptic STMN2 RNA levels (cryptic splicing),[4],suppressing cryptic splicing
same,full-length STMN2 RNA levels,[4],restoring full length STMN2 RNA
same,STMN2 protein levels,[5],increase is significant
same,neurite outgrowth deficits following TDP-43 depletion,[6],rescued
same,"axon extension from the microchannel (regrowth after injury), mean values",[6],243 um
same,axonal regrowth after injury relative to the non-targeting control ASO,[6],significantly increased regrowth
NTC: non-targeting control ASO CCTATAGGACTATCCAGGAA (chemistry not given here) [reference compound],"axon extension from the microchannel (regrowth after injury), mean values",[6],176 um
CC(C)C[C@H](NC(=O)[C@H](Cc1ccccc1)NC(=O)c1cnccn1)B(O)O [Bortezomib],transcripts containing the STMN2 cryptic exon (PCR assay),[7],presence of transcripts containing the STMN2 cryptic exon
